Laboratory results from paper PMC10016038, “Enhanced Endosomal Signaling and Desensitization of GLP-1R vs GIPR in Pancreatic Beta Cells” (Endocrinology, 2023).
Entries after “also recorded” stand apart in the source; their conditions may differ.

Assays:
[1] = system: SNAP-tagged human GIPR; assay: TR-FRET receptor clustering, SNAP-GIPR; assay type: cell-based; conditions: 100 nM, 37 °C, n = 4
Description: The time-resolved fluorescence resonance energy transfer (TR-FRET) assay was performed as previously described ([24]). INS-1 832/3 SNAP-GLP-1R or SNAP-GIPR cells were labeled in suspension with 40 nM SNAP-Lumi4-Tb and 1 mM SNAP-Surface 649 (New England Biolabs, Hitchin, UK) for 1 hour at room temperature in complete medium. […] TR-FRET was quantified as the ratio of fluorescent signal at 665 nm to that at 616 nm, after subtraction of background signal at each wavelength.
Figure 3. GLP-1R vs GIPR clustering propensities in beta cells. […] Diffusion coefficients for individual ROIs are indicated on each image, with corresponding intensity traces, as well as 2D and fitted 3D autocorrelation maps for each ROI, are also depicted. (B) Average RICS diffusion coefficients for each receptor and treatment for each cell analyzed from n = 4 experiments. (C) GLP-1R clustering kinetics measured by TR-FRET in INS-1 832/3 SNAP-GLP-1R cells treated with 100 nM agonist as indicated, with vehicle-corrected AUCs included; n = 4. (D) GIPR clustering kinetics measured by TR-FRET in INS-1 832/3 SNAP-GIPR cells treated with 100 nM agonist as indicated, with vehicle-corrected AUCs included; n = 4. Data are mean ± SEM, compared by one-way ANOVA with Sidak's test; ****P < .0001; ns: non-significant. […] Best readings: GLP-1R Veh i 2.03, ii 1.56, iii 1.44 μm^2/s; GIPR Veh i 0.80, ii 0.34, iii 0.44 μm^2/s. […]

[2] = system: calcium response in INS-1 832/3 cells; assay: Calcium assay, INS-1 832/3 cells; assay type: cell-based, rat; conditions: for Calcium response, net difference between both receptors: INS-1 832/3
Description: Imaging of INS-1 832/3 cells or whole-islet Ca^2+ dynamics was performed as follows: cells or Matrigel-encased islets from individual animals were loaded with the Ca^2+ responsive dye Cal-520 AM (AAT Bioquest), pre-incubated for 1 hour in KRBH G6, and imaged in MatTek glass bottom dishes every 6 second at 488 nm using a Nikon Eclipse Ti microscope with an ORCA-Flash 4.0 camera (Hamamatsu) and Metamorph software (Molecular Devices) while maintained at 37 °C on a heated stage. Raw fluorescence intensity traces from cell-occupied areas or islet ROIs were extracted using Fiji. Responses were plotted relative to the average fluorescence intensity during the 6 mM glucose baseline period, before agonist addition.
(§1) Figure 7. Functional analysis of GLP-1R vs GIPR signaling in beta cells. […] Data are mean ± SEM, compared by paired t tests; *P < .05; ns, nonsignificant.

[3] = system: SNAP-tagged human GIPR; assay: High-content microscopy internalization, SNAP-GIPR; assay type: cell-based; conditions: BG-S-S-649, 30 min, 37 °C, respective endogenous agonists, n = 5
Description: The assay was performed as previously described ([21]). The INS-1 832/3 SNAP-GLP-1R or SNAP-GIPR cells were seeded into poly-D-lysine-coated, black 96-well plates. On the day of the assay, labeling was performed with BG-S-S-649 (1 µM), a surface-labeling SNAP-tag probe that can be released on application of reducing agents such as Mesna. After washing, treatments were applied for 30 minutes at 37 °C in complete medium. Ligand was removed and cells washed with cold HBSS and placed on ice for subsequent steps. Mesna (100 mM in alkaline TNE buffer, pH 8.6) or alkaline TNE buffer without Mesna was applied for 5 minutes, and then washed with HBSS. Cells were imaged by widefield microscopy, with both epifluorescence and transmitted phase contrast images acquired. On imaging completion, HBSS was removed and replaced with fresh complete medium, and receptor was allowed to recycle for 60 minutes at 37 °C, followed by a second Mesna application to remove any receptor that had recycled to the plasma membrane, with the plate re-imaged as above. Internalized receptor at each time point was determined from cell-containing regions as determined from the phase contrast image using […] ([22]) and used to determine internalization and recycling parameters as previously described ([21]). […]

[4] = system: cAMP response in INS-1 832/3 cells; assay: cAMP HTRF assay; assay type: cell-based, rat; conditions: 100 nM, log(Emax/EC50) in Fig. 7A, n = 5
From the text: Results were expressed as basal fold increase responses and fitted to 3-parameter curves using Prism 9 (GraphPad).
as §1

[5] = system: INS-1 832/3 WT cells; assay: Insulin secretion assay, INS-1 832/3 WT cells; assay type: cell-based, rat; conditions: 100 nM, 11 mM glucose; WT n = 3
Description: At the end of the treatments, the supernatant containing the secreted insulin was collected, centrifuged at 1000g for 3 minutes, and transferred to a fresh tube. To determine total insulin content, cells were lysed using KRBH buffer + 1% w/v BSA + 1% v/v Triton X-100 (Sigma). The lysates were sonicated 3 × 10 seconds in a water bath sonicator and centrifuged at 10 000g for 10 minutes, and the supernatants collected. The samples were stored at −20 °C until the insulin concentration was determined using an Insulin Ultra-Sensitive HTRF Assay kit (62IN2PEG, Cisbio, Codolet, France) according to the manufacturer's instructions.
as §1

| Substance | GIPR clustering [1] | Calcium response, net difference between both receptors ([2]; Cal-520 AM, 100 nM, n = 4) | Internalization of GIPR compared with GLP-1R [3] | cAMP response, GIP compared with GLP-1, INS-1 832/3 [4] | Calcium response, GIPR compared with GLP-1R, 0-1 minute ([2]; Cal-520 AM, 100 nM, first minute, n = 4) | Calcium response, GIPR compared with GLP-1R, 1-5 minutes ([2]; Cal-520 AM, 100 nM, following 4 minutes, n = 4) | Calcium response tendency, GIP vs GLP-1, INS-1 832/3 ([2]; summary in discussion) | Insulin secretion, GIP compared with GLP-1 [5] |
| --- | --- | --- | --- | --- | --- | --- | --- | --- |
| GLP-1(7-36)NH2 | not detectable | zero net difference | – | – | – | – | – | – |
| GIP(1-42) | could not be detected | zero net difference | significantly less internalization | near-significant increase; also recorded: tendency toward increased | initial trend for a decreased GIPR compared with GLP-1R response | this tendency was reversed | tendency toward increased | nonsignificant tendency toward improvement; also recorded: tendency toward increased |
